Source: publication PMC11249646, “Small-Molecule Disruptors of the Interaction between Calcium- and Integrin-Binding Protein 1 and Integrin αIIbβ3 as Novel Antiplatelet Agents” (ACS Pharmacology & Translational Science, 2024)
Read-outs that look alike come from different tables or passages of the source.

What was measured:
[1] = target: T1, GST-CIB1 : F-scrambled peptide (Homo sapiens, UniProt Q99828); test: FP scrambled-peptide counter screen, 1536-well format; format: binding; conditions: for Curve Class (counterscreen): qHTS curve class; for IC50: read-out: IC50 [μM] (counterscreen)
T1 construct: made in house; host or cells: BL-21 plus RIL cells (E. coli)
T1 sequence (Q99828 1-191): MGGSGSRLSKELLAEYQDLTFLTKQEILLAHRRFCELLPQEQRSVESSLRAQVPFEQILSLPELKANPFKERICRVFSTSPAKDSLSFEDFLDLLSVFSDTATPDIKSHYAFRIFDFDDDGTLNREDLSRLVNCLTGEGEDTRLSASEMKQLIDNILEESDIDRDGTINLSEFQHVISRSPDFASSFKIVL

[2] = target: T2, CIB1 and αIIb interaction (CIB1-GST : F-αIIb peptide) (Homo sapiens, UniProt Q99828); test: FP assay, 1536-well qHTS format (primary and confirmatory screen); format: binding; conditions: for Curve Class (confirmatory screen): qHTS curve class
T2 construct: made in house; host or cells: BL-21 plus RIL cells (E. coli)
T2 sequence (Q99828 1-191): T1 sequence (Q99828 1-191)

[3] = Table S3, counterscreen, a negative sign marks inhibitory curves
[4] = Table S3, counterscreen, negative = inhibition
[5] = Table S3, confirmatory screen, YES/NO call
[6] = Table S3, confirmatory screen, a negative sign marks inhibitory curves
[7] = Table S3, confirmatory screen, negative = inhibition
[8] = Table S3, confirmatory screen, read-out: IC50 [μM] (confirmatory screen)
[9] = qHTS FP screen hits, Table S2, negative = inhibition
[10] = qHTS FP screen hits, Table S2, one class per curve where COUNT > 1, negative sign = inhibitory curve
[11] = qHTS FP screen hits, Table S2, read-out: IC50
[12] = counterscreen, negative sign = inhibitory curve
[13] = confirmatory screen, negative sign = inhibitory curve
[14] = confirmatory screen, read-out: IC50 [μM] (confirmatory screen)
[15] = qHTS primary screen hits, Table S2, negative = inhibition
[16] = qHTS primary screen hits, Table S2, negative sign = inhibitory curve, several classes where COUNT > 1
[17] = qHTS primary screen hits, Table S2, read-out: IC50

## CC(=O)c1c(O)cc2cccc3c2c1CC(C)(O)O3 (centres unmarked) [NCGC00381142-01]
[1]; [3]
  Curve Class (counterscreen): -2.1
[1]; [4]
  Efficacy (%) (counterscreen): -99%
[1]; Table S3, counterscreen
  IC50: 39.8 µM
[2]; [5]
  Confirm? (confirmatory screen): YES
[2]; [6]
  Curve Class (confirmatory screen): -2.2
[2]; [7]
  Efficacy (%) (confirmatory screen): -84%
[2]; [8]
  IC50: 39.8 µM
[2]; [9]
  Efficacy (%): -51%
[2]; [10]
  Curve Class: -2.2
[2]; [11]
  IC50: 50.1 µM

## Nc1nc2c(s1)C(c1ccc(F)cc1F)CC(=O)N2 (centres unmarked) [NCGC00422010-03]
[1]; counterscreen
  Efficacy (%) (counterscreen): -16%
[1]; counterscreen, YES/NO
  Confirm? (counterscreen): YES
[1]; [12]
  Curve Class (counterscreen): 4
[2]; confirmatory screen
  Efficacy (%) (confirmatory screen): -39%
[2]; confirmatory screen, YES/NO
  Confirm? (confirmatory screen): YES
[2]; [13]
  Curve Class (confirmatory screen): -2.4
[2]; [14]
  IC50: 89.1 µM
[2]; [9]
  Efficacy (%): -54%
[2]; [10]
  Curve Class: -2.2
[2]; [11]
  IC50: 79.4 µM

## Nc1ccc(O)c(C(=O)O)c1 [NCGC00016344-07]
[1]; [4]
  Efficacy (%) (counterscreen): 154%
[2]; [6]
  Curve Class (confirmatory screen): 4
[2]; [7]
  Efficacy (%) (confirmatory screen): -27%
[2]; [15]
  Efficacy (%): -58%
[2]; [16]
  Curve Class: -2.2

## O=C(O)C(F)(F)F.Oc1cccc2c(-c3nnn[nH]3)ccnc12 [NCGC00183786-01]
[1]; counterscreen
  Efficacy (%) (counterscreen): -23%
[1]; counterscreen, YES/NO
  Confirm? (counterscreen): YES
[1]; [12]
  Curve Class (counterscreen): 4
[2]; confirmatory screen
  Efficacy (%) (confirmatory screen): -29%
[2]; confirmatory screen, YES/NO
  Confirm? (confirmatory screen): YES
[2]; [13]
  Curve Class (confirmatory screen): -1.4
[2]; [14]
  IC50: 25.1 µM
[2]; [15]
  Efficacy (%): -27%
[2]; [16]
  Curve Class: -1.2
[2]; [17]
  IC50: 3.5 µM

## CCN1CCN(c2ccc(Nc3ccc(-c4ccc(C(N)=O)cc4)n4ncnc34)cc2)CC1.O=C(O)C(F)(F)F [NCGC00249351-01]
[1]; counterscreen
  Efficacy (%) (counterscreen): -68%
  IC50: 50.1 µM
[1]; [12]
  Curve Class (counterscreen): -2.2
[2]; confirmatory screen
  Efficacy (%) (confirmatory screen): -64%
[2]; confirmatory screen, YES/NO
  Confirm? (confirmatory screen): YES
[2]; [13]
  Curve Class (confirmatory screen): -2.4
[2]; [14]
  IC50: 22.4 µM
[2]; [9]
  Efficacy (%): -39%
[2]; [10]
  Curve Class: -2.2
[2]; [11]
  IC50: 35.5 µM

## Nc1nc2c(s1)C(c1ccccc1C(F)(F)F)CC(=O)N2.O=C(O)C(F)(F)F (centres unmarked) [NCGC00488247-02]
[1]; Table S3, counterscreen, YES/NO call
  Confirm? (counterscreen): YES
[1]; [3]
  Curve Class (counterscreen): -2.4
[1]; [4]
  Efficacy (%) (counterscreen): -39%
[1]; Table S3, counterscreen
  IC50: 28.2 µM
[2]; [6]
  Curve Class (confirmatory screen): 4
[2]; [7]
  Efficacy (%) (confirmatory screen): -12%
[2]; [9]
  Efficacy (%): -83%
[2]; [10]
  Curve Class: -2.2
[2]; [11]
  IC50: 44.7 µM

## CC1=C(O)C(=O)C=C2C1=CC=C1[C@@]2(C)CC[C@@]2(C)[C@@H]3C[C@](C)(C(=O)O)CC[C@]3(C)CC[C@]12C [NCGC00178913-04]
[1]; counterscreen
  Efficacy (%) (counterscreen): -107%
  IC50: 44.7 µM
[1]; [12]
  Curve Class (counterscreen): -2.1
[2]; confirmatory screen
  Efficacy (%) (confirmatory screen): -135%
[2]; confirmatory screen, YES/NO
  Confirm? (confirmatory screen): YES
[2]; [13]
  Curve Class (confirmatory screen): -1.1
[2]; [14]
  IC50: 22.4 µM
[2]; [9]
  Efficacy (%): -84%
[2]; [10]
  Curve Class: -3
[2]; [11]
  IC50: 34.1 µM

## O=C([O-])c1c(Cl)c(Cl)c(Cl)c(Cl)c1-c1c2cc(I)c(=O)c(I)c-2oc2c(I)c(O)c(I)cc12.[Na+] [NCGC00159508-05]
[1]; [4]
  Efficacy (%) (counterscreen): 311%
[1]; Table S3, counterscreen
  IC50: 44.7 µM
[2]; [7]
  Efficacy (%) (confirmatory screen): 261%
[2]; [15]
  Efficacy (%): -26%
[2]; [16]
  Curve Class: -2.4
[2]; [17]
  IC50: 13.6 µM

## O=C(Nc1nc(-c2ccccc2)cs1)c1ccncc1NS(=O)(=O)c1cccs1.O=C(O)C(F)(F)F [NCGC00345032-01]
[1]; counterscreen
  Efficacy (%) (counterscreen): -52%
  IC50: 79.4 µM
[1]; counterscreen, YES/NO
  Confirm? (counterscreen): YES
[1]; [12]
  Curve Class (counterscreen): -2.2
[2]; confirmatory screen
  Efficacy (%) (confirmatory screen): -85%
[2]; confirmatory screen, YES/NO
  Confirm? (confirmatory screen): YES
[2]; [13]
  Curve Class (confirmatory screen): -1.2
[2]; [14]
  IC50: 25.1 µM
[2]; [15]
  Efficacy (%): -59%
[2]; [16]
  Curve Class: -2.2

## CN1CCN([C@H]2CC[C@H](n3cc(-c4ccc(Oc5ccccc5)cc4)c4c(N)ncnc43)CC2)CC1.Cl [NCGC00370980-02]
[1]; counterscreen
  Efficacy (%) (counterscreen): -17%
[1]; counterscreen, YES/NO
  Confirm? (counterscreen): YES
[1]; [12]
  Curve Class (counterscreen): 4
[2]; confirmatory screen
  Efficacy (%) (confirmatory screen): -44%
[2]; confirmatory screen, YES/NO
  Confirm? (confirmatory screen): YES
[2]; [13]
  Curve Class (confirmatory screen): -2.2
[2]; [9]
  Efficacy (%): -56%
[2]; [10]
  Curve Class: -2.2
[2]; [11]
  IC50: 50.1 µM

## COc1cccc(CN(C)c2ccc(S(=O)(=O)Nc3nccs3)cc2)c1O.O=C(O)C(F)(F)F [NCGC00318978-01]
[1]; [3]
  Curve Class (counterscreen): -2.4
[1]; [4]
  Efficacy (%) (counterscreen): -33%
[1]; Table S3, counterscreen
  IC50: 39.8 µM
[2]; [5]
  Confirm? (confirmatory screen): YES
[2]; [6]
  Curve Class (confirmatory screen): -2.4
[2]; [7]
  Efficacy (%) (confirmatory screen): -35%
[2]; [8]
  IC50: 44.7 µM
[2]; [9]
  Efficacy (%): -24%
[2]; [11]
  IC50: 17.8 µM
